Laboratory results as given in patent US10376481B2, “Compounds and methods for inhibiting NHE-mediated antiport in the treatment of disorders associated with fluid retention or salt overload and gastrointestinal tract disorders” (ARDELYX, INC, priority 2012, dated 2019).

Key:
human NHE3 [1] = target: T1, human NHE3 (Homo sapiens, UniProt P48764); assay: Cell-based assay of NHE-3 activity (pre-incubation inhibition), human; details: for IC50: PS120 fibroblasts stably expressing human NHE3, 10 min pre-incubation with 0-30 μM test compound, read-out: pIC50 (human Preincubation assay) (converted); for % inhibition (human Preincubation assay): PS120 fibroblasts stably expressing human NHE3, pre-incubation with test compound
T1 sequence (P48764 26-834): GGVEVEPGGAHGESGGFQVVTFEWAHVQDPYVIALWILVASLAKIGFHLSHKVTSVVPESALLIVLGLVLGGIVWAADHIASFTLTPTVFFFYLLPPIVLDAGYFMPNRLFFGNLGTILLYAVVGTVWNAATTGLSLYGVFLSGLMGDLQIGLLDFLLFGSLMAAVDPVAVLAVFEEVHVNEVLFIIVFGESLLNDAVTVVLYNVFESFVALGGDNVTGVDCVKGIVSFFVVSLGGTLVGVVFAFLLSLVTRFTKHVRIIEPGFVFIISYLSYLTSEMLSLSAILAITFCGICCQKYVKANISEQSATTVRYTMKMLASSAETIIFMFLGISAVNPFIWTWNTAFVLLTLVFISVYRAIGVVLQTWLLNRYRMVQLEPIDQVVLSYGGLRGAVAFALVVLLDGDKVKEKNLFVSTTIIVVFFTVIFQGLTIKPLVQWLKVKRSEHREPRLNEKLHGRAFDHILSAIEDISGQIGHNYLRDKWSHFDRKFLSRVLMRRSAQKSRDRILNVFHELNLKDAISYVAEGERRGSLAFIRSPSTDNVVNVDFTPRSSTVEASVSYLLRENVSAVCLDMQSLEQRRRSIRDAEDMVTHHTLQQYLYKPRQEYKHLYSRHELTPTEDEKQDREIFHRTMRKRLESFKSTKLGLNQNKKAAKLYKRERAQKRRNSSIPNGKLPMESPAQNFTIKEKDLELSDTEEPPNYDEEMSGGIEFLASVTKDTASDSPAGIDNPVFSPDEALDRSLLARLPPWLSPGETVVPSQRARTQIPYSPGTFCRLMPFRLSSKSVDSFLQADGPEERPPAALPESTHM
Protocol: Rat and human NHE-3-mediated Na^+-dependent H^+ antiport was measured using a modification of the pH sensitive dye method originally reported by Paradiso (Proc. Natl. Acad. Sci. USA. (1984) 81(23): 7436-7440, which is hereby incorporated by reference in its entirety). PS120 fibroblasts stably expressing human NHE3 were obtained from Mark Donowitz (Baltimore, Md.). Opossum kidney (OK) cells were obtained from the ATCC and propagated per their instructions. The rat NHE-3 gene (GenBank M85300) was introduced into OK cells via electroporation, and cells were seeded into 96 well plates and grown overnight. Medium was aspirated from the wells then incubated for 30 min at 37° C. with NH4Cl-HEPES buffer (20 mM NH4Cl, 80 mM NaCl, 50 mM HEPES, 5 mM KCl, 2 mM CaCl2, 1 mM MgCl2, pH 7.4) containing 5 μM BCECF-AM. Cells were washed once with Ammonium free, Nat-free HEPES (100 mM choline, 50 mM HEPES, 10 mM glucose, 5 mM KCl, 2 mM CaCl2, 1 mM MgCl2, pH 7.4) and incubated in the same buffer for 10 minutes at room temperature to lower intracellular pH with 0-30 μM test compound. […] Changes in intracellular pH were monitored using a FLIPR Tetra® (Molecular Devices, Sunnyvale, Calif.) by excitation at λex 439 to 505 nm, and measuring BCECF fluorescence at λem 538 nm. The initial rate of the fluorescence ratio change was used as a measure of NHE-mediated Na^+/H^+ activity, and reported as the change in fluorescence ratio per minute. Initial rates were plotted as the average 2 or more replicates, and pIC50 values were estimated using GraphPad Prism.

human NHE3 [2] = target: T1, human NHE3; assay: Cell-based assay of NHE-3 activity (persistent inhibition), human; details: PS120 fibroblasts stably expressing human NHE3, 60 min incubation then washout; for IC50: read-out: pIC50 (human Persistence assay) (converted)
Protocol: The ability of compounds to inhibit human and rat NHE-3-mediated Na^+-dependent H^+ antiport after application and washout was measured using a modification of the pH sensitive dye method described above. PS120 fibroblasts stably expressing human NHE3 were obtained from Mark Donowitz (Baltimore, Md.). Opossum kidney (OK) cells were obtained from the ATCC and propagated per their instructions. The rat NHE-3 gene was introduced into OK cells via electroporation, and cells were seeded into 96 well plates and grown overnight. Medium was aspirated from the wells, cells were washed once with NaCl-HEPES buffer (100 mM NaCl, 50 mM HEPES, 10 mM glucose, 5 mM KCl, 2 mM CaCl2, 1 mM MgCl2, pH 7.4), then overlayed with NaCl-HEPES buffer containing 0-30 μM test compound. After a 60 min incubation at room temperature, the test drug containing buffer was aspirated from the cells. Following aspiration, cells were washed once with NaCl-HEPES buffer without drug, then incubated for 30 min at 37° C. with NH4Cl-HEPES buffer (20 mM NH4Cl, 80 mM NaCl, 50 mM HEPES, 5 mM KCl, 2 mM CaCl2, 1 mM MgCl2, pH 7.4) containing 5 μM BCECF-AM. Cells were washed once with Ammonium free, Na^+-free HEPES (100 mM choline, 50 mM HEPES, 10 mM glucose, 5 mM KCl, 2 mM CaCl2, 1 mM MgCl2, pH 7.4) and incubated in the same buffer for 10 minutes at room temperature to lower intracellular pH. NHE-3-mediated recovery of neutral intracellular pH was initiated (10 min after compound washout) by addition of Na-HEPES buffer. […] Changes in intracellular pH were monitored using a FLIPR Tetra® (Molecular Devices, Sunnyvale, Calif.) by excitation at λex 439 to 505 nm, and measuring BCECF fluorescence at λem 538 nm. The initial rate of the fluorescence ratio change was used as a measure of NHE-mediated Na^+/H^+ activity, and reported as the change in fluorescence ratio per minute. Initial rates were plotted as the average 2 or more replicates, and pIC50 values were estimated using GraphPad Prism.

human NHE3 [3] = target: T1, human NHE3; assay: Cell-based assay of NHE-3 activity (human NHE3 inhibition assay); parameters: expressed in transfected cells; host or cells: Opossum kidney (OK) cells (ATCC), electroporated; details: OK cells with human NHE-3 gene, BCECF pH recovery, 0-30 μM test compound; read-out: Human NHE3 pIC50 (converted)
Protocol: Rat or human NHE-3-mediated Na^+-dependent H^+ antiport was measured using a modification of the pH sensitive dye method originally reported by Paradiso (Proc. Natl. Acad. Sci. USA. (1984) 81(23): 7436-7440). Opossum kidney (OK) cells were obtained from the ATCC and propagated per their instructions. The rat NHE-3 gene (GenBank M85300) or the human NHE-3 gene (GenBank NM_004174.1) was introduced into OK cells via electroporation, and cells were seeded into 96 well plates and grown overnight. Medium was aspirated from the wells, cells were washed twice with NaCl-HEPES buffer (100 mM NaCl, 50 mM HEPES, 10 mM glucose, 5 mM KCl, 2 mM CaCl2, 1 mM MgCl2, pH 7.4), then incubated for 30 min at room temperature with NH4Cl-HEPES buffer (20 mM NH4Cl, 80 mM NaCl, 50 mM HEPES, 5 mM KCl, 2 mM CaCl2, 1 mM MgCl2, pH 7.4) containing 5 μM bis(acetoxymethyl) 3,3′-(3′,6′-bis(acetoxymethoxy)-5-((acetoxymethoxy)carbonyl)-3-oxo-3H-spiro[isobenzofuran-1,9′-xanthene]-2′,7′-diyl)dipropanoate (BCECF-AM). Cells were washed twice with Ammonium free, Na^+-free HEPES (100 mM choline, 50 mM HEPES, 10 mM glucose, 5 mM KCl, 2 mM CaCl2, 1 mM MgCl2, pH 7.4) and incubated in the same buffer for 10 minutes at room temperature to lower intracellular pH. […] Initial rates were plotted as the average 2 or more replicates, and pIC50 values were estimated using GraphPad Prism.

[4] = test system: absorption of sodium from the intestinal lumen; assay: Inhibition of intestinal sodium absorption: rat urinary sodium and fecal form 16 h post-dose; assay type: in vivo, Sprague-Dawley rats; details: oral gavage 10 mg/kg; for response vs control in vivo at 10 mg/kg: urine 16 h post-dose, read-out: uNa Result, uNa (% of vehicle); for FFS (fecal form score): 16 h post-dose, scale 1-5, group average
Protocol: Urinary sodium concentration and fecal form were measured to assess the ability of selected example compounds to inhibit the absorption of sodium from the intestinal lumen. Eight-week old Sprague-Dawley rats were purchased from Charles River Laboratories (Hollister, Calif.), were housed 2 per cage, and acclimated for at least 3 days before study initiation. Animals were fed Harlan Teklad Global 2018 rodent chow (Indianapolis, Ind.) and water ad libitum throughout the study and maintained in a standard light/dark cycle of 6 AM to 6 PM. On the day of the study, between 4 PM and 5 PM, a group of rats (n=6) were dosed via oral gavage with test compound or vehicle (water) at a volume of 10 mL/kg. After dose administration animals were placed in individual metabolic cages where they were also fed the same chow in meal form and watered ad libitum. At 16 h post-dose, the urine samples were collected and fecal form was assessed by two independent observations. Fecal forms were scored according to a common scale associated with increasing fecal water to the wettest observation in the cage's collection funnel (1, normal pellet; 2, pellet adhering to sides of collection funnel due to moisture; 3, loss of normal pellet shape; 4, complete loss of shape with a blotting pattern; 5, liquid fecal streams evident). A rat's fecal form score (FFS) was determined by averaging both observational scores for all rats within a group (n=6). The vehicle group average was 1. For urine samples, the volumes were determined gravimetrically and centrifuged at 3,600×g. The supernatants were diluted 100-fold in deionized Milli-Q water then filtered through a 0.2 μm GHP Pall AcroPrep filter plate (Pall Life Sciences, Ann Arbor, Mich.) prior to analysis by ion chromatography. Ten microliters of each filtered extract was injected onto a Dionex ICS-3000 ion chromatograph system (Dionex, Sunnyvale, Calif.). Cations were separated by an isocratic method using 25 mM methanesulfonic acid as the eluent on an IonPac CS12A 2 mm i.d.×250 mm, 8 μm particle size cation exchange column (Dionex). Sodium was quantified using standards prepared from a cation standard mix containing Li^+, Na^+, NH4^+, K^+, Mg^2+, and Ca^2+ (Dionex). The mean mass of sodium urinated for every group in the 16 h period was determined with the vehicle group usually urinating approximately 21 mg sodium. The urine Na (uNa) for rats in the test groups were expressed as a percentage of the vehicle mean and the means were compared to that of the vehicle group by utilizing a one-way analysis of variance coupled with a Dunnett's post hoc test.

SMILES: O=C(NCCCCNC(=O)NCCOCCOCCNS(=O)(=O)c1ccc(O[C@H]2c3cc(Cl)cc(Cl)c3C[C@@H]2N2CCCC2)cc1)NCCOCCOCCNS(=O)(=O)c1ccc(O[C@H]2c3cc(Cl)cc(Cl)c3C[C@@H]2N2CCCC2)cc1 [Example 17]
- IC50 (human NHE3 [1]): < 100 nM
- % inhibition (human Preincubation assay) (human NHE3 [1]): C (>70%)
- % inhibition (human Persistence assay) (human NHE3 [2]): C (>70%)
- IC50 (human NHE3 [2]): < 100 nM
- IC50 (human NHE3 [3]): < 100 nM

SMILES: CC(C)(C(=O)NCCOCCOCCOCCNS(=O)(=O)c1ccc(O[C@H]2c3ccccc3C[C@@H]2N2CCCCC2)cc1)C(=O)NCCOCCOCCOCCNS(=O)(=O)c1ccc(O[C@H]2c3ccccc3C[C@@H]2N2CCCCC2)cc1 [Example 7, 2,2-dimethyl-N1,N3-bis(2-(2-(2-(2-(4-((1S,2S)-2-(piperidin-1-yl)-2,3-dihydro-1H-inden-1-yloxy)phenylsulfonamido)ethoxy)ethoxy)ethoxy)ethyl)malonamide]
- response vs control in vivo at 10 mg/kg [4]: 35 to 75%
- IC50 (human NHE3 [3]): < 100 nM

SMILES: CN(C)[C@H]1Cc2c(Cl)cc(Cl)cc2[C@@H]1Oc1ccc(S(=O)(=O)NCCOCCOCCNC(=O)Nc2ccc(NC(=O)NCCOCCOCCNS(=O)(=O)c3ccc(O[C@H]4c5cc(Cl)cc(Cl)c5C[C@@H]4N(C)C)cc3)cc2)cc1 [Example 27]
- FFS (fecal form score) [4]: 1
- response vs control in vivo at 10 mg/kg [4]: < 35%
- IC50 (human NHE3 [3]): < 100 nM

SMILES: CN(C)[C@H]1Cc2c(Cl)cc(Cl)cc2[C@@H]1Oc1ccc(S(=O)(=O)N(C)CCOCCOCCNC(=O)NCCCCNC(=O)NCCOCCOCCN(C)S(=O)(=O)c2ccc(O[C@H]3c4cc(Cl)cc(Cl)c4C[C@@H]3N(C)C)cc2)cc1 [Example 26]
- FFS (fecal form score) [4]: 1
- response vs control in vivo at 10 mg/kg [4]: 35 to 75%
- IC50 (human NHE3 [3]): < 100 nM

SMILES: O=C(NCCOCCOCCNS(=O)(=O)c1ccc(O[C@H]2c3ccccc3C[C@@H]2N2CCCCC2)cc1)c1ccc(C(=O)NCCOCCOCCNS(=O)(=O)c2ccc(O[C@H]3c4ccccc4C[C@@H]3N3CCCCC3)cc2)cc1 [Example 6, N1,N4-bis(2-(2-(2-(4-((1S,2S)-2-(piperidin-1-yl)-2,3-dihydro-1H-inden-1-yloxy)phenylsulfonamido)ethoxy)ethoxy)ethyl)terephthalamide]
- FFS (fecal form score) [4]: 1
- response vs control in vivo at 10 mg/kg [4]: 35 to 75%
- IC50 (human NHE3 [3]): < 100 nM

SMILES: O=C(NCCOCCOCCNS(=O)(=O)c1ccc(O[C@H]2c3ccccc3C[C@@H]2N2CCCCC2)cc1)c1cccc(C(=O)NCCOCCOCCNS(=O)(=O)c2ccc(O[C@H]3c4ccccc4C[C@@H]3N3CCCCC3)cc2)c1 [Example 33]
- response vs control in vivo at 10 mg/kg [4]: 35 to 75%
- IC50 (human NHE3 [3]): < 100 nM

SMILES: N[C@@H]1CCCN([C@H]2Cc3c(F)cc(Cl)cc3[C@@H]2Oc2ccc(S(=O)(=O)NCCOCCOCCNC(=O)NCCCCNC(=O)NCCOCCOCCNS(=O)(=O)c3ccc(O[C@H]4c5cc(Cl)cc(F)c5C[C@@H]4N4CCC[C@@H](N)C4)cc3)cc2)C1 [Example 29]
- IC50 (human NHE3 [1]): < 100 nM
- % inhibition (human Preincubation assay) (human NHE3 [1]): C (>70%)
- % inhibition (human Persistence assay) (human NHE3 [2]): B (40-70%)
- IC50 (human NHE3 [2]): > 1000 nM
- IC50 (human NHE3 [3]): < 100 nM
